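Interpolation was linear, between the two tested concentrations surrounding the appropriate level; five concentrations were tested over 48 hours in 96-well plates. At the GI50, growth is halved. At the TGI there is no net growth.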
Key:
Assay in all cases: DTP human tumour cell line panel, 48 h
A498 renal = test system: A498 renal
ACHN renal = test system: ACHN renal
BT-549 breast = test system: BT-549 breast
CAKI-1 renal = test system: CAKI-1 renal
CCRF-CEM leukemia = test system: CCRF-CEM leukemia
DU-145 prostate = test system: DU-145 prostate
HL-60(TB) leukemia = test system: HL-60(TB) leukemia
HOP-92 NSCLC = test system: HOP-92 NSCLC
K-562 leukemia = test system: K-562 leukemia
KM12 colon = test system: KM12 colon
MDA-MB-231 breast = test system: MDA-MB-231 breast
MOLT-4 leukemia = test system: MOLT-4 leukemia
NCI-H460 lung = test system: NCI-H460 lung
OVCAR-3 ovarian = test system: OVCAR-3 ovarian
OVCAR-5 ovarian = test system: OVCAR-5 ovarian
OVCAR-8 ovarian = test system: OVCAR-8 ovarian
PC-3 prostate = test system: PC-3 prostate
RXF 393 renal = test system: RXF 393 renal
SF-295 CNS = test system: SF-295 CNS
SF-539 CNS = test system: SF-539 CNS
SK-MEL-5 melanoma = test system: SK-MEL-5 melanoma
SK-OV-3 ovarian = test system: SK-OV-3 ovarian
SN12C renal = test system: SN12C renal
SNB-75 CNS = test system: SNB-75 CNS
SR leukemia = test system: SR leukemia
SW-620 colon = test system: SW-620 colon
TK-10 renal = test system: TK-10 renal
UACC-62 melanoma = test system: UACC-62 melanoma
UO-31 renal = test system: UO-31 renal

Cc1[nH]c(C(=O)Nc2ccccc2OCc2cccc(C(=O)N3CCC[C@@H](N)C3)c2)c(Cl)c1Cl
GI50 (A498 renal): 1560 nM | TGI (A498 renal): 3010 nM | GI50 (ACHN renal): 1610 nM | TGI (ACHN renal): 3020 nM | GI50 (BT-549 breast): 1780 nM | TGI (BT-549 breast): 3430 nM | GI50 (CAKI-1 renal): 1630 nM | TGI (CAKI-1 renal): 3170 nM | GI50 (CCRF-CEM leukemia): 1240 nM | TGI (CCRF-CEM leukemia): 2990 nM | GI50 (DU-145 prostate): 1790 nM | TGI (DU-145 prostate): 3260 nM | GI50 (HL-60(TB) leukemia): 1120 nM | TGI (HL-60(TB) leukemia): 2670 nM | GI50 (HOP-92 NSCLC): 1060 nM | TGI (HOP-92 NSCLC): 2620 nM | GI50 (K-562 leukemia): 1130 nM | TGI (K-562 leukemia): 2500 nM | GI50 (KM12 colon): 1820 nM | TGI (KM12 colon): 3400 nM | GI50 (MDA-MB-231 breast): 1770 nM | TGI (MDA-MB-231 breast): 3500 nM | GI50 (MOLT-4 leukemia): 1690 nM | TGI (MOLT-4 leukemia): 3430 nM | GI50 (NCI-H460 lung): 1930 nM | TGI (NCI-H460 lung): 3760 nM | GI50 (OVCAR-3 ovarian): 1710 nM | TGI (OVCAR-3 ovarian): 3150 nM | GI50 (OVCAR-5 ovarian): 1570 nM | TGI (OVCAR-5 ovarian): 2980 nM | GI50 (OVCAR-8 ovarian): 2060 nM | TGI (OVCAR-8 ovarian): 4570 nM | GI50 (PC-3 prostate): 1530 nM | TGI (PC-3 prostate): 3060 nM | GI50 (RXF 393 renal): 1640 nM | TGI (RXF 393 renal): 3300 nM | GI50 (SF-295 CNS): 1790 nM | TGI (SF-295 CNS): 3360 nM | GI50 (SF-539 CNS): 1570 nM | TGI (SF-539 CNS): 2960 nM | GI50 (SK-MEL-5 melanoma): 1720 nM | TGI (SK-MEL-5 melanoma): 3110 nM | GI50 (SK-OV-3 ovarian): 1800 nM | TGI (SK-OV-3 ovarian): 3390 nM | GI50 (SN12C renal): 1770 nM | TGI (SN12C renal): 3410 nM | GI50 (SNB-75 CNS): 1330 nM | TGI (SNB-75 CNS): 2710 nM | GI50 (SR leukemia): 254 nM | TGI (SR leukemia): 771 nM | GI50 (SW-620 colon): 1630 nM | TGI (SW-620 colon): 3120 nM | GI50 (TK-10 renal): 2040 nM | TGI (TK-10 renal): 3700 nM | GI50 (UACC-62 melanoma): 1600 nM | TGI (UACC-62 melanoma): 3090 nM | GI50 (UO-31 renal): 1330 nM | TGI (UO-31 renal): 2800 nM

From PubChem BioAssay (NCI)
